Laboratory results from publication PMC9640540, “An LH1–RC photocomplex from an extremophilic phototroph provides insight into origins of two photosynthesis proteins” (Communications Biology, 2022).

Biological target: T1, reaction center (RC) of the LH1–RC complex (Rhodopila globiformis, UniProt A0A2S6NEG7+A0A2S6NEP5)
T1 construct: gene CCS01_15140; native LH1-RC core complex purified from chromatophores (LDAO, then DDM); closed LH1 ring; with Reaction center protein H chain; Photosynthetic reaction center cytochrome c subunit
Experiment: cryo-EM structure, […] Å
Assay type: binding

T1 sequence (A0A2S6NEG7 1-275): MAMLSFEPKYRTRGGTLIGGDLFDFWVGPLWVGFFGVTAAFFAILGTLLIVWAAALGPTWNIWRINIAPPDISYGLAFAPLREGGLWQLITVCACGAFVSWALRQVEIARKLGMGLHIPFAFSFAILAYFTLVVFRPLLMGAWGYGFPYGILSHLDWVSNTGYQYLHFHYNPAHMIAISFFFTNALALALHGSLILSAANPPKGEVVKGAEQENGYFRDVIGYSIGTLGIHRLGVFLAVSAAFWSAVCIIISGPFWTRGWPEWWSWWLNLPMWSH
T1 sequence (A0A2S6NEP5 1-326): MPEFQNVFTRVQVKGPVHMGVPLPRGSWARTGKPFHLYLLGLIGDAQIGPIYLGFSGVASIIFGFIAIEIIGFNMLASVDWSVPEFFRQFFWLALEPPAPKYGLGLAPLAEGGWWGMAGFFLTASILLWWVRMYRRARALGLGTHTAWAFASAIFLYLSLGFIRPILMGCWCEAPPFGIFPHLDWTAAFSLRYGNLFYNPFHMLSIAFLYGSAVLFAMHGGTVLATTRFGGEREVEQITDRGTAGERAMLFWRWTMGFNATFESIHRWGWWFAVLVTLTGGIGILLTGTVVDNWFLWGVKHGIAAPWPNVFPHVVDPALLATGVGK
T1 sequence (A0A2S6MZS1 1-258 partner): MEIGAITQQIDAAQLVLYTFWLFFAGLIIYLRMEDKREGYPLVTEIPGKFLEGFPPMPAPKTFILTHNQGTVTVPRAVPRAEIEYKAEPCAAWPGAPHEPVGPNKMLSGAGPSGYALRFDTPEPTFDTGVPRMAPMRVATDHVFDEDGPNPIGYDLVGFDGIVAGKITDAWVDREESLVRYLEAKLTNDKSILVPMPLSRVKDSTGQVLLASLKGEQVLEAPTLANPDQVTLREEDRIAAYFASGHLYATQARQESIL
T1 sequence (A0A2S6NEK5 1-344 partner): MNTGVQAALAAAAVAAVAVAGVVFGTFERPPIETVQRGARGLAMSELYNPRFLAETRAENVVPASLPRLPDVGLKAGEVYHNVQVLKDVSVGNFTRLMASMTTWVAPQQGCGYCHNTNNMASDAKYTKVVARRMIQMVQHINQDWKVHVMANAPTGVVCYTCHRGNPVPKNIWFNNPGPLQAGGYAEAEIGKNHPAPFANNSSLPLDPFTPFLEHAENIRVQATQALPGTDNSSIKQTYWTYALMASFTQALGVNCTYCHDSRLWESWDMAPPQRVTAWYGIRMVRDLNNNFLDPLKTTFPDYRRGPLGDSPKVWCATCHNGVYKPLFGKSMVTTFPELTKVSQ

With `CC[C@H]1c2cc3[nH]c4c(c3C)C(=O)[C@H](C(=O)OC)c4c3nc(cc4[nH]c(cc(n2)[C@@H]1C)c(C(C)=O)c4C)[C@@H](C)[C@@H]3CCC(=O)OC/C=C(\C)CCC[C@H](C)CCC[C@H](C)CCCC(C)C` [BPhe a] the “cryo-EM structure, 2.24 Å” value was “BPhe a, magenta sticks”.
